Active and inactive are the calls of the source.
Key:
fMet-Leu-Phe receptor = target: T1, fMet-Leu-Phe receptor (Homo sapiens, UniProt P21462); assay: FPR ligands, dose response (AID 519); type: functional
T1 sequence (P21462 whole entry): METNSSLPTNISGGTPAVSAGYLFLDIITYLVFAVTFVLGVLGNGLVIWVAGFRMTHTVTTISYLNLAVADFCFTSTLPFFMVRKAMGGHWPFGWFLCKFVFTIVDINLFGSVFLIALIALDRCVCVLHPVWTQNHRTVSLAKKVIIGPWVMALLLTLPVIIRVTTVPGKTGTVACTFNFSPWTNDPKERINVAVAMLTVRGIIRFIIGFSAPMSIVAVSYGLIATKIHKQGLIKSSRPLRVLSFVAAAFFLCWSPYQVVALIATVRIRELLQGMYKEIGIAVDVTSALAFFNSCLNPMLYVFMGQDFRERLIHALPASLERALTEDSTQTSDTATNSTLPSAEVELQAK

[1] = target: T2, Tyrosyl-DNA phosphodiesterase 2 (Homo sapiens, UniProt O95551); assay: human TDP2 enzyme inhibitors, dose response, biochemical, epi absorbance, IC50 (AID 743297)
T2 sequence (O95551 whole entry): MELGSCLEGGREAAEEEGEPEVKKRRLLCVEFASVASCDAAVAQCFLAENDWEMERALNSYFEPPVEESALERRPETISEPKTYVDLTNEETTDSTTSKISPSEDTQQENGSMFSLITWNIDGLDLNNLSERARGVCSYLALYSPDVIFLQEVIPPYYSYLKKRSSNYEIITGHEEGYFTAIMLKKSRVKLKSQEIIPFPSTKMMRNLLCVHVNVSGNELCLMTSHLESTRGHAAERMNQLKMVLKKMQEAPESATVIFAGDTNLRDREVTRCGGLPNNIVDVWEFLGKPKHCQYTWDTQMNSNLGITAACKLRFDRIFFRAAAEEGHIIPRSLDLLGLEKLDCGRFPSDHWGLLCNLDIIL

Protein RecA = target: T3, Protein RecA (Mycobacterium tuberculosis, UniProt P9WHJ3); assay: Fluorescence Cell-Free Homogeneous Dose Retest to Identify Inhibitors of RecA-Intein Splicing Activity. [Related pubchem assays (depositor defined):AID2097, AID2223, AID489010, AID492950]; type: functional
T3 sequence (P9WHJ3 whole entry): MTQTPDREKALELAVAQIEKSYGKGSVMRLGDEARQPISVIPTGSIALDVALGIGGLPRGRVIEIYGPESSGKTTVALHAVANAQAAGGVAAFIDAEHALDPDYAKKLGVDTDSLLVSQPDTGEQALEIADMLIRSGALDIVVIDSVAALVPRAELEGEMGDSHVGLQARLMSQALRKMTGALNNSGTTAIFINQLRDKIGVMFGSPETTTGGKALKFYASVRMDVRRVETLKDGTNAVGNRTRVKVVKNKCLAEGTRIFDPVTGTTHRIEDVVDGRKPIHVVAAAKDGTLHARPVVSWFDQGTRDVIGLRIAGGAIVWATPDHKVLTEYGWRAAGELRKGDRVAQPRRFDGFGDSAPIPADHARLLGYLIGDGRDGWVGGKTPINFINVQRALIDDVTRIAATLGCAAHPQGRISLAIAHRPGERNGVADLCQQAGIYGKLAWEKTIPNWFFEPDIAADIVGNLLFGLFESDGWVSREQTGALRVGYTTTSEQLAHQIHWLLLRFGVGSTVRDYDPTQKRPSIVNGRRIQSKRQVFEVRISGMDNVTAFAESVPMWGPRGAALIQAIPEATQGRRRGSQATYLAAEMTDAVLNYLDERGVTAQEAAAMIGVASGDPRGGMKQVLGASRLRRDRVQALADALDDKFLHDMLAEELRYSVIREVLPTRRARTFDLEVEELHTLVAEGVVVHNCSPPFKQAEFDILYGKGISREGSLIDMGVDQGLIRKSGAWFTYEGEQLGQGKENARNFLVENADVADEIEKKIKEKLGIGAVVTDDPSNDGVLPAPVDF

[2] = target: T4, Replicative DNA helicase DnaB (Mycobacterium tuberculosis, UniProt P9WMR3); assay: DnaB intein splicing inhibitors, dose response, biochemical, cell-free fluorescence (AID 449749); type: functional
T4 sequence (P9WMR3 whole entry): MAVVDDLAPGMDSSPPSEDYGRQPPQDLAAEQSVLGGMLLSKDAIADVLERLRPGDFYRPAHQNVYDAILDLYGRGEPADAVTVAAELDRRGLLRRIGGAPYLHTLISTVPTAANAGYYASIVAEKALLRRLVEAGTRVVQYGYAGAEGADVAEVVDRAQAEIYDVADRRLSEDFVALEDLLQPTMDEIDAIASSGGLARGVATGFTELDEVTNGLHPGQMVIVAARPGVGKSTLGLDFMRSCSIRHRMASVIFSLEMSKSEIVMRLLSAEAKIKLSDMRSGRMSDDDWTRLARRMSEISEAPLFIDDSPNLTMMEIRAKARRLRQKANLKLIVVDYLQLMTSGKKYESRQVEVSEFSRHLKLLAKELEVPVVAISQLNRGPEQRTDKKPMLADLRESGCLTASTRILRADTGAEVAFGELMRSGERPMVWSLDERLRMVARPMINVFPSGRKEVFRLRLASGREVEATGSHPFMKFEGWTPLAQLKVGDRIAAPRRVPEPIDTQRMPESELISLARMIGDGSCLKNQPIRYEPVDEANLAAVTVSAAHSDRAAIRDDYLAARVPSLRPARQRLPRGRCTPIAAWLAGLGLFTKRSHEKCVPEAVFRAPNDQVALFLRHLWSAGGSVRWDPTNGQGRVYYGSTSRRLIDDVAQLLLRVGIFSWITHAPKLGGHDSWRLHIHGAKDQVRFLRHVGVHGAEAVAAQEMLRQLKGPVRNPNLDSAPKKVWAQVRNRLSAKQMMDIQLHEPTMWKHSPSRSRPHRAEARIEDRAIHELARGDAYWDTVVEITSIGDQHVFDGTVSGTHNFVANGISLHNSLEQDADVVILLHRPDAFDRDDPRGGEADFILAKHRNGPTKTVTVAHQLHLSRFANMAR

Genome polyprotein = Genome polyprotein (dengue virus type 2, UniProt P29990); assay: Dengue-2 NS5 methyltransferase inhibitors, primary screen, biochemical, confirmation dose response (AID 588689); type: functional
Sequence of Genome polyprotein (P29990 2492-3391 limits assumed): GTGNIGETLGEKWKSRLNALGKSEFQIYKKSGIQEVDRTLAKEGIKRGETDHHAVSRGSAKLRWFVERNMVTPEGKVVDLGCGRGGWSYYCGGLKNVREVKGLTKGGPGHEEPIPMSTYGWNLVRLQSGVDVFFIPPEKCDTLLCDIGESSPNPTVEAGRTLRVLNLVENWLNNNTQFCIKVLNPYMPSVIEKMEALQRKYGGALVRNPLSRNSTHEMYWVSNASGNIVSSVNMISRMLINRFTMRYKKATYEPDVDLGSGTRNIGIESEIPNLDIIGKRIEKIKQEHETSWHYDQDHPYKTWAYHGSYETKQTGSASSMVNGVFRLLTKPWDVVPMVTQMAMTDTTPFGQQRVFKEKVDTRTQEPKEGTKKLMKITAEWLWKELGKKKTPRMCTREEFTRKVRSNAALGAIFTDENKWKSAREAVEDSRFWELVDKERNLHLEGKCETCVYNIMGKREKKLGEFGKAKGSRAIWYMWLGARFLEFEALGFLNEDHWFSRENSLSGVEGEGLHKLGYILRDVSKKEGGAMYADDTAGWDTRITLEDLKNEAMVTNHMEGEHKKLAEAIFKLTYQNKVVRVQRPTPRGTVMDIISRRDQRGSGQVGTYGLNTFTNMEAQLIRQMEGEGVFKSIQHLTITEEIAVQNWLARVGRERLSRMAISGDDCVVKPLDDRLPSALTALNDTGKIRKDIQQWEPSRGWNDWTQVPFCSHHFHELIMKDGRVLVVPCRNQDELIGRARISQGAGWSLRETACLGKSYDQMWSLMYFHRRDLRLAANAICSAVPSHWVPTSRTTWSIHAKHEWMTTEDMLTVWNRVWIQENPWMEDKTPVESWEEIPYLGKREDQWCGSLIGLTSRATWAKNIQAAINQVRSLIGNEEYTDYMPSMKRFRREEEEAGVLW

[3] = target: T5, 1-phosphatidylinositol 4,5-bisphosphate phosphodiesterase beta-3 (Homo sapiens, UniProt Q01970); assay: Fluorescence-based biochemical high throughput dose response assay to identify inhibitors of phospholipase C isozymes (PLC-B3).
T5 sequence (Q01970 whole entry): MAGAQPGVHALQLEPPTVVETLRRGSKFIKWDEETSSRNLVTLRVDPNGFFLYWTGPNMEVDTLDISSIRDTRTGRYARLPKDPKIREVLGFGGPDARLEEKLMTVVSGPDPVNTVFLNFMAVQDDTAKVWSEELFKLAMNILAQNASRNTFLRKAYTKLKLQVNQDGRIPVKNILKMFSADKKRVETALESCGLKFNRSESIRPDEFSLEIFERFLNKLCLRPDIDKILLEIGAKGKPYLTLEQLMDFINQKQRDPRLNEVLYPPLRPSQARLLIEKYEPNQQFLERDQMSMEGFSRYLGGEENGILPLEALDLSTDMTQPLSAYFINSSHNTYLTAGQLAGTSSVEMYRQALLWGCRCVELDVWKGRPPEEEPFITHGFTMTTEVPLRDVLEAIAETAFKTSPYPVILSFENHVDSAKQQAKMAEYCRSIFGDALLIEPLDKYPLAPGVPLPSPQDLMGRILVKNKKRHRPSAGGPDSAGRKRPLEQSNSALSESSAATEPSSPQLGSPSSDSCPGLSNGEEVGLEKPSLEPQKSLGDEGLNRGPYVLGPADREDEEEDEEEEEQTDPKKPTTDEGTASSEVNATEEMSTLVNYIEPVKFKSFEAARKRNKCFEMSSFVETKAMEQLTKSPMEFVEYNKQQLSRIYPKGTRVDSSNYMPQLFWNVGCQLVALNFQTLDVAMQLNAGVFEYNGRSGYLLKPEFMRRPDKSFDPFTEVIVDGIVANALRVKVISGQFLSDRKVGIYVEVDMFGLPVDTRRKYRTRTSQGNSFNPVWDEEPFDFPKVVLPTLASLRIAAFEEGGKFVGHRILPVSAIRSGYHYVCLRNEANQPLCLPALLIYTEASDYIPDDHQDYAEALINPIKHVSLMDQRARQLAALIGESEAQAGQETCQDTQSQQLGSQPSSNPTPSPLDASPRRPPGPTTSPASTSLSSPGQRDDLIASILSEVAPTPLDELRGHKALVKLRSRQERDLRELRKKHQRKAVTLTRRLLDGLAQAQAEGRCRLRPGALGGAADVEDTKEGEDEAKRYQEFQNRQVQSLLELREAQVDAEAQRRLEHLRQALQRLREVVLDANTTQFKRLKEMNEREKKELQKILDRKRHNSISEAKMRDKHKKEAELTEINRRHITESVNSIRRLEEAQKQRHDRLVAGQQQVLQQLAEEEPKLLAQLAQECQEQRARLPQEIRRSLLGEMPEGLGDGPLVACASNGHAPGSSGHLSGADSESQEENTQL

[4] = target: T6, 1-phosphatidylinositol 4,5-bisphosphate phosphodiesterase gamma-1 (Homo sapiens, UniProt P19174); assay: Counterscreen for inhibitors of phospholipase C isozymes (PLC-B3): Fluorescence-based biochemical high throughput dose response assay to identify inhibitors of phospholipase C isozymes (PLC-gamma1).
T6 sequence (P19174 whole entry): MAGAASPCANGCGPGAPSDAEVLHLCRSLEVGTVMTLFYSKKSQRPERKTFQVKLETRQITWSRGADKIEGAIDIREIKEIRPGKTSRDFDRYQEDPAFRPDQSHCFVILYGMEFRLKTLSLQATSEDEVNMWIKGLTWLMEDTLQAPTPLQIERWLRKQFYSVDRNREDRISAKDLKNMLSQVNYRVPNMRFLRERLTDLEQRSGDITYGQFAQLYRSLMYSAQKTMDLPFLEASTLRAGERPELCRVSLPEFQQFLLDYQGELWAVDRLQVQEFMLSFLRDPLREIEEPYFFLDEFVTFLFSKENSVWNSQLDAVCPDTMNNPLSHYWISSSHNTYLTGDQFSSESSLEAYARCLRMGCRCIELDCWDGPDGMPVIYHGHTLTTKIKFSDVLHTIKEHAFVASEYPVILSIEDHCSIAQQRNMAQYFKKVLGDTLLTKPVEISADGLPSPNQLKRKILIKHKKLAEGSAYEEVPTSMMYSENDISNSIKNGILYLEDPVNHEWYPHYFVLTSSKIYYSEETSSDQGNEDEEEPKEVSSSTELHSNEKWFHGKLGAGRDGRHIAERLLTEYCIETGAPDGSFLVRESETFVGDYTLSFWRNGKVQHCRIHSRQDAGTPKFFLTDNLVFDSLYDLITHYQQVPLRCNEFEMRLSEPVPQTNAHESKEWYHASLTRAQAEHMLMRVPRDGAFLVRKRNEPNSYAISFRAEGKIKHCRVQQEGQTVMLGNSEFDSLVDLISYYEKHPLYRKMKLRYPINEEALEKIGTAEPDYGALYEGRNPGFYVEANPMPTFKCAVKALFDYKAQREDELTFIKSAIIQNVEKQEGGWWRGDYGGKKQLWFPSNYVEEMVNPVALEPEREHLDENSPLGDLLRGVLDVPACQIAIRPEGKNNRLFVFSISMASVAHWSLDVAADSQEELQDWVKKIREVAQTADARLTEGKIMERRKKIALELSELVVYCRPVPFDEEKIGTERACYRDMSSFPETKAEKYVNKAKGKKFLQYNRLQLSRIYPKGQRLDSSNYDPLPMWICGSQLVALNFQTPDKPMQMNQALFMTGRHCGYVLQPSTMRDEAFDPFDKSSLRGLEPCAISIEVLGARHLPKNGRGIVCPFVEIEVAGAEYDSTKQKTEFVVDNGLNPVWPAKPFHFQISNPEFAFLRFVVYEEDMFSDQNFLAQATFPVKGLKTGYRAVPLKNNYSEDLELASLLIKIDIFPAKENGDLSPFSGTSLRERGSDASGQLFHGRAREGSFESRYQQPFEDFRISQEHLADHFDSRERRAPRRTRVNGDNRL

[5] = HepG2 cell cytotoxicity, dose response, cytotoxicity control, plate reader, cherry-pick, antagonist series (AID 743416); type: functional, cell-based
[6] = A549 cell cytotoxicity, dose response, cytotoxicity control, plate reader, cherry-pick, antagonist series (AID 743412); type: functional, cell-based
[7] = MC4R antagonists, dose response, counter-screen for LGR2 antagonist project, cell-based, plate reader, cherry pick (AID 743444); type: functional;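 note: transfected HEK 293 cells stimulated with alpha-MSH peptide; potency of inhibitors of the alpha-MSH evoked signal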
[8] = LGR2 antagonists, dose response, cell-based, HEK293, CRE-luciferase reporter, cherry pick, set 2 (AID 743343); type: functional;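 note: transfected cells were stimulated with diluted bursicon conditioned medium after compound addition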

For `COCCCN1C(=O)C(O)=C(C(=O)c2ccccc2)C1c1ccc2c(c1)OCO2` (centres undefined), the Ki (fMet-Leu-Phe receptor) was 29.6 µM (inactive).

In the case of `COc1cccc(C(c2c(C)nn(-c3ccccc3)c2O)c2c(C)nn(-c3ccccc3)c2O)c1OC`, the IC50 [1] is reported as 24.7 µM (inactive), the EC50 (Protein RecA) is reported as 0.81 µM (active) and the AC50 [2] is reported as 1.25 µM (active). The IC50 (Genome polyprotein) was 61.1 µM (active).

In the case of `Cc1oc2cc(O)cc(O)c2c(=O)c1-c1ccc2c(c1)OCCCO2`, the Ki (fMet-Leu-Phe receptor) is reported as > 66.7 µM (inactive).

With `Cc1ccc(S(=O)(=O)Cc2nc(O)c3ccccc3n2)cc1` the IC50 [3] was > 123 µM (inactive) and the IC50 [4] was > 123 µM (inactive).

With `Cc1cc(NC(=O)c2ccccc2)ncc1NC(=O)c1cccs1` the IC50 [3] was > 122 µM (inactive) and the IC50 [4] was > 122 µM (inactive).

For `N#C[C@@H]1[C@H](c2ccc(C#Cc3ccccc3F)cc2)[C@@H](CO)N1C(=O)C1CCCC1`, the AC50 [5] was 39.6 µM (active), the AC50 [6] was > 52 µM (inactive) and the AC50 [7] was 6.34 µM (active). For the same molecule, the AC50 [8] was 8.84 µM (active).
